Laboratory results: paper PMC8286840, “Identifying SARS-CoV-2 antiviral compounds by screening for small molecule inhibitors of Nsp3 papain-like protease” (Biochemical Journal, 2021)
Counter-ions that a name gives are not always drawn. Like-named read-outs stand apart in the source and are kept apart here. Where a SMILES comes first, the peptide text is derived from it.

Legend:
[1] = target: T1, SARS-CoV-2 PLpro (nsp3 1564–1878) (Severe acute respiratory syndrome coronavirus 2, UniProt P0DTD1); assay: biochemical; parameters: FRET-quenched peptide (Pro3) cleavage by PLpro, 10 min pre-incubation, slope over 20 min, normalised to no-compound control; conditions: read-out: % of control remaining
[2] = target: T1, SARS-CoV-2 PLpro (nsp3 1564–1878); assay: biochemical; parameters: FRET-quenched peptide (Pro3) cleavage by PLpro, 10 min pre-incubation, slope over 20 min, normalised to no-compound control; conditions: read-out: % of control remaining; remark: listed apart in the source

SMILES: Nc1ccn([C@H]2CC[C@@H](CO)O2)c(=O)n1 [Zalcitabine]
- remaining activity at 3.75 µM ([1]; Well no.=7856, high concentration screen): 98.9%
- remaining activity at 1.25 µM ([2]; Well no.=7856, low concentration screen): 92.9%

SMILES: CC(C(=O)O)c1ccc2c(c1)CC(=O)c1ccccc1S2 (centres unmarked) [Zaltoprofen]
- remaining activity at 3.75 µM ([1]; Well no.=4879, high concentration screen): 97.2%
- remaining activity at 1.25 µM ([2]; Well no.=4879, low concentration screen): 96.8%

SMILES: CC(=O)N[C@H]1[C@H]([C@H](O)[C@H](O)CO)OC(C(=O)O)=C[C@@H]1NC(=N)N [Zanamivir]
- remaining activity at 3.75 µM ([1]; Well no.=5883, high concentration screen): 104%
- remaining activity at 1.25 µM ([2]; Well no.=5883, low concentration screen): 103%

SMILES: CCCOc1ccccc1-c1nc2[nH]nnc2c(=O)[nH]1 [Zaprinast]
- remaining activity at 3.75 µM ([1]; Well no.=1342, high concentration screen): 101%
- remaining activity at 3.75 µM ([1]; Well no.=2188, high concentration screen): 95.6%
- remaining activity at 1.25 µM ([2]; Well no.=1342, low concentration screen): 99.6%
- remaining activity at 1.25 µM ([2]; Well no.=2188, low concentration screen): 92%

SMILES: COc1cc(-c2ccc(=O)[nH]n2)ccc1OC(F)F [Zardaverine]
- remaining activity at 3.75 µM ([1]; Well no.=1438, high concentration screen): 94.9%
- remaining activity at 3.75 µM ([1]; Well no.=2190, high concentration screen): 98.2%
- remaining activity at 1.25 µM ([2]; Well no.=1438, low concentration screen): 95.5%
- remaining activity at 1.25 µM ([2]; Well no.=2190, low concentration screen): 97.5%

SMILES: O=C(O)[C@H](Cc1ccc(Nc2nccc3ccncc23)cc1)NC1=C(Br)C(=O)C12CCCCC2 [Zaurategrast]
- remaining activity at 3.75 µM ([1]; Well no.=7838, high concentration screen): 99.7%
- remaining activity at 1.25 µM ([2]; Well no.=7838, low concentration screen): 98.1%

SMILES: C[C@H]1CCCC(=O)CCC/C=C/c2cc(O)cc(O)c2C(=O)O1 [Zearalenone]
- remaining activity at 3.75 µM ([1]; Well no.=3148, high concentration screen): 97.8%
- remaining activity at 1.25 µM ([2]; Well no.=3148, low concentration screen): 97.2%

SMILES: O=c1ncccn1[C@@H]1O[C@H](CO)[C@@H](O)[C@H]1O [Zebularine]
- remaining activity at 3.75 µM ([1]; Well no.=7818, high concentration screen): 96.3%
- remaining activity at 1.25 µM ([2]; Well no.=7818, low concentration screen): 97%

SMILES: C/C1=C\CC(C)(C)/C=C/C(=O)/C(C)=C/CC1 [Zerumbone]
- remaining activity at 3.75 µM ([1]; Well no.=3549, high concentration screen): 98.6%
- remaining activity at 1.25 µM ([2]; Well no.=3549, low concentration screen): 96.6%

SMILES: COc1nc(C)cnc1NS(=O)(=O)c1cccnc1-c1ccc(-c2nnco2)cc1 [Zibotentan]
- remaining activity at 3.75 µM ([1]; Well no.=6318, high concentration screen): 98.2%
- remaining activity at 1.25 µM ([2]; Well no.=6318, low concentration screen): 98.5%

SMILES: CC(c1cc2ccccc2s1)N(O)C(N)=O (centres unmarked) [Zileuton]
- remaining activity at 3.75 µM ([1]; Well no.=1764, high concentration screen): 100%
- remaining activity at 1.25 µM ([2]; Well no.=1764, low concentration screen): 102%

SMILES: CN(C)C/C=C(/c1ccc(Br)cc1)c1cccnc1 [Zimelidine dihydrochloride]
- remaining activity at 3.75 µM ([1]; Well no.=1534, high concentration screen): 96%
- remaining activity at 1.25 µM ([2]; Well no.=1534, low concentration screen): 96.1%

SMILES: O=C1Cc2cc(CCN3CCN(c4nsc5ccccc45)CC3)c(Cl)cc2N1 [Ziprasidone (hydrochloride monohydrate)]
- remaining activity at 3.75 µM ([1]; Well no.=6563, high concentration screen): 90.8%
- remaining activity at 1.25 µM ([2]; Well no.=6563, low concentration screen): 92.6%

SMILES: O=C1Cc2cc(CCN3CCN(c4nsc5ccccc45)CC3)c(Cl)cc2N1 [Ziprasidone HCl]
- remaining activity at 3.75 µM ([1]; Well no.=4859, high concentration screen): 93.7%
- remaining activity at 1.25 µM ([2]; Well no.=4859, low concentration screen): 92.1%

SMILES: C[C@H](CSC(=O)c1ccccc1)C(=O)N1C[C@@H](Sc2ccccc2)C[C@H]1C(=O)O [Zofenopril calcium]
- remaining activity at 3.75 µM ([1]; Well no.=5564, high concentration screen): 103%
- remaining activity at 1.25 µM ([2]; Well no.=5564, low concentration screen): 102%

SMILES: O=P(O)(O)C(O)(Cn1ccnc1)P(=O)(O)O [Zoledronic acid]
- remaining activity at 3.75 µM ([1]; Well no.=1881, high concentration screen): 97.1%
- remaining activity at 3.75 µM ([1]; Well no.=5578, high concentration screen): 98.1%
- remaining activity at 1.25 µM ([2]; Well no.=1881, low concentration screen): 100%
- remaining activity at 1.25 µM ([2]; Well no.=5578, low concentration screen): 102%

SMILES: CN(C)CCc1c[nH]c2ccc(C[C@H]3COC(=O)N3)cc12 [Zolmitriptan]
- remaining activity at 3.75 µM ([1]; Well no.=1885, high concentration screen): 97.6%
- remaining activity at 3.75 µM ([1]; Well no.=6507, high concentration screen): 98.2%
- remaining activity at 1.25 µM ([2]; Well no.=1885, low concentration screen): 98%
- remaining activity at 1.25 µM ([2]; Well no.=6507, low concentration screen): 98.3%

SMILES: NS(=O)(=O)Cc1noc2ccccc12 [Zonisamide sodium]
- remaining activity at 3.75 µM ([1]; Well no.=1390, high concentration screen): 100%
- remaining activity at 1.25 µM ([2]; Well no.=1390, low concentration screen): 98.4%

SMILES: NS(=O)(=O)Cc1noc2ccccc12 [Zonisamide]
- remaining activity at 3.75 µM ([1]; Well no.=1879, high concentration screen): 96.4%
- remaining activity at 1.25 µM ([2]; Well no.=1879, low concentration screen): 94.7%

SMILES: O=C(O)Cc1nn(Cc2nc3cc(C(F)(F)F)ccc3s2)c(=O)c2ccccc12 [Zopolrestat]
- remaining activity at 3.75 µM ([1]; Well no.=5825, high concentration screen): 98.9%
- remaining activity at 1.25 µM ([2]; Well no.=5825, low concentration screen): 98.5%

SMILES: CO[C@H]1C[C@@H]2CC[C@@H](C)[C@@](O)(O2)C(=O)C(=O)N2CCCC[C@H]2C(=O)O[C@H]([C@H](C)C[C@@H]2CC[C@H](n3cnnn3)[C@H](OC)C2)CC(=O)[C@H](C)/C=C(\C)[C@@H](O)[C@@H](OC)C(=O)[C@H](C)C[C@H](C)/C=C/C=C/C=C/1C [Zotarolimus]
- remaining activity at 3.75 µM ([1]; Well no.=8308, high concentration screen): 91.2%
- remaining activity at 1.25 µM ([2]; Well no.=8308, low concentration screen): 90.2%

SMILES: CCCCC[C@H](O)CC(=O)CCc1ccc(O)c(OC)c1 [[6]-Gingerol]
- remaining activity at 3.75 µM ([1]; Well no.=6162, high concentration screen): 99.6%
- remaining activity at 1.25 µM ([2]; Well no.=6162, low concentration screen): 96.6%

SMILES: CC(C)C[C@H](NC(=O)[C@H](Cc1ccccc1)NC(=O)CNC(=O)[C@@H](C)NC(=O)[C@@H](N)Cc1ccc(O)cc1)C(=O)O [[D-Ala2]leucine-enkephalin]
- remaining activity at 3.75 µM [1]: 98.6%
- remaining activity at 1.25 µM [2]: 101%

SMILES: CC[C@H](C)[C@H](NC(=O)[C@@H]1CCCN1C(=O)[C@H](Cc1cnc[nH]1)NC(=O)[C@@H](NC(=O)[C@H](Cc1ccc(O)cc1)NC(=O)[C@@H](NC(=O)[C@H](CCCN=C(N)N)NC(=O)CNC)C(C)C)[C@@H](C)CC)C(=O)O [[Sar1, Ile8]-Angiotensin II (TFA)]
- remaining activity at 3.75 µM ([1]; Well no.=7588, high concentration screen): 92%
- remaining activity at 1.25 µM ([2]; Well no.=7588, low concentration screen): 96%

SMILES: C[C@H](N)C(=O)O [_-Alanine]
- remaining activity at 3.75 µM ([1]; Well no.=7747, high concentration screen): 107%
- remaining activity at 1.25 µM ([2]; Well no.=7747, low concentration screen): 103%

SMILES: C[C@H](NC(=O)[C@@H](N)CCC(=O)O)C(=O)O [_-L-Glutamyl-L-alanine] (H-Glu-Ala-OH)
- remaining activity at 3.75 µM ([1]; Well no.=7750, high concentration screen): 104%
- remaining activity at 1.25 µM ([2]; Well no.=7750, low concentration screen): 105%

SMILES: CC1(C)CCC2=C(O1)c1ccccc1C(=O)C2=O [_-Lapachone]
- remaining activity at 3.75 µM ([1]; Well no.=6166, high concentration screen): 79.2%
- remaining activity at 1.25 µM ([2]; Well no.=6166, low concentration screen): 104%

SMILES: NC(=O)c1ccc[n+]([C@@H]2O[C@H](COP(=O)([O-])O)[C@@H](O)[C@H]2O)c1 [_-Nicotinamide mononucleotide]
- remaining activity at 3.75 µM ([1]; Well no.=7735, high concentration screen): 105%
- remaining activity at 1.25 µM ([2]; Well no.=7735, low concentration screen): 102%

SMILES: Nc1ncnc2c1ncn2[C@@H]1O[C@H](COP(=O)(O)CP(=O)(O)OP(=O)(O)O)[C@@H](O)[C@H]1O [alpha,beta-Methylene adenosine 5'-triphosphate dilithium]
- remaining activity at 3.75 µM ([1]; Well no.=932, high concentration screen): 98.2%
- remaining activity at 1.25 µM ([2]; Well no.=932, low concentration screen): 101%

SMILES: NC(N)=N[C@@H](CCC(=O)O)C(=O)O [alpha-Guanidinoglutaric acid]
- remaining activity at 3.75 µM ([1]; Well no.=669, high concentration screen): 96.1%
- remaining activity at 1.25 µM ([2]; Well no.=669, low concentration screen): 93.5%

SMILES: CN1[C@@H](CC(=O)c2ccccc2)CCC[C@H]1C[C@H](O)c1ccccc1 [alpha-Lobeline hydrochloride]
- remaining activity at 3.75 µM ([1]; Well no.=1025, high concentration screen): 102%
- remaining activity at 1.25 µM ([2]; Well no.=1025, low concentration screen): 98.8%

SMILES: CC(N)Cc1c[nH]c2ccc(O)cc12 (stereo not drawn) [alpha-Methyl-5-hydroxytryptamine maleate]
- remaining activity at 3.75 µM ([1]; Well no.=895, high concentration screen): 106%
- remaining activity at 1.25 µM ([2]; Well no.=895, low concentration screen): 106%

SMILES: Nc1cc(-c2ccncc2)c[nH]c1=O [amrinone]
- remaining activity at 3.75 µM ([1]; Well no.=2146, high concentration screen): 100%
- remaining activity at 1.25 µM ([2]; Well no.=2146, low concentration screen): 102%
